“Also recorded” adds a separate entry of the source. Like-named read-outs stand apart in the source and are kept apart here.
Assays:
MDR P. falciparum Dd2 = assay: Fixed-ratio combination (isobologram) with quinoline antimalarials, Dd2; format: cell-based
Experimental: (§1) In one embodiment, synergism is assessed herein using fixed-ratio combinations that provide information over a wide range of drug concentrations. […] If these stock solutions were termed Drug A and Drug B, then six final stock solutions were prepared from this initial stock: Drug A alone, Drug B alone, and volume:volume mixtures of Drug A and B in the following ratios: 4:1, 3:2, 2:3, and 1:4. Two-fold dilutions of each of the six final stock solutions were done robotically across a 96-well plate in quadruplicate. Subsequent steps were typical of standard drug-susceptibility methods. […] The data pointed from all six curves were then analyzed using Calcusyn software (commercially available from BioSoft, Cambridge, UK) for determination of synergy. Output from this analysis included FIC values used to plot isobolograms as well as a rigorously determined synergy index, termed the combination index (CI) (Calcusyn). FIC50 isobolograms, CI's and tabulation of IC90 component drug concentrations were reported.
The combinations of the acridones T3.5 and T2 with quinine were assessed for synergism.
FIG. 6 is an isobologram charting the efficacy of quinine in combination with T3.5 in vitro against CQ-sensitive (D6) and MDR (Dd2) P. falciparum.

P. yoelii = assay: Hemozoin in PRBCs of treated infected mice; format: in vivo
Experimental: (§2) P. falciparum Dd2 MDR parasited red cells were synchronized to the ring stage by sorbitol lysis and incubated the cells in the presence or absence of 300 nM T3.5. […] P. yoelii infected mice treated with T3.5 harbor PRBCs that lack hemozoin. Taken together these observations are consistent with the notion that T3.5 blocks hemozoin formation in infected cells.

[1] = tested on: CQ-sensitive P. falciparum D6; assay: Fixed-ratio combination (isobologram) with quinine, D6; format: cell-based; settings: isobolar analysis
Experimental: as §1, with “concentrations. In this method, the two drugs are mixed in an appropriate ratio, serial dilutions of the combined solution are used for testing, and results compared to each drug alone. Specifically, to determine synergy, the acridone is tested in combination with a second drug using a modification of the fixed-ratio method described by Fivelman et al. (See, Fivelman et al., Antimicrob. Agents Chemother. 48, 4097-4102 (2004) and Winter et al., Antimicrob. Agents Chemother. 41, 1449-1454 (1997), both references incorporated herein, in their entirety, by reference).” for “concentrations.”, “quadruplicate.” for “quadruplicate. Subsequent steps were typical of standard drug-susceptibility methods.”, “FIC50 isobolograms, CI's and tabulation of IC90 component drug concentrations were reported.” left out

[2] = molecular target: T1, recombinant human dopamine transporter (hDAT) (Homo sapiens, UniProt Q01959); assay: [125I]RTI-55 binding, HEK-hDAT
T1 construct: expressed in transfected cells

[3] = molecular target: T2, recombinant human serotonin transporter (hSERT) (Homo sapiens, UniProt P31645); assay: [125I]RTI-55 binding, HEK-hSERT
T2 construct: expressed in transfected cells

P. falciparum Dd2 MDR = assay: Morphology of synchronized Dd2 parasitized red cells; format: cell-based; settings: 300 nM; 36 hours of incubation; vs controls
Experimental: as §2

[4] = molecular target: T3, recombinant human norepinephrine transporter (hNET) (Homo sapiens, UniProt P23975); assay: [125I]RTI-55 binding, HEK-hNET
T3 construct: expressed in transfected cells

[5] = In vitro heme aggregation assay; settings: 25 mM phosphate buffer, pH 4.8, 30 minutes at room temperature
Experimental: This example describes the in vitro inhibition of heme aggregation by xanthone 2,3,4,5,6-pentahydroxyxanthone. Conditions: 25 mM Phosphate buffer, pH 5.2, 1 hour incubation at 37° C. Further details of this assay are described by Ignatushchenko et al. in Xanthones as antimalarial agents; studies of a possible mode of action.
This example describes visual evidence that acridones disclosed herein form soluble complexes with heme under mildly acidic conditions. […] Employing the same assay conditions, heme was mixed with T2 or T3.5 under mildly acidic conditions (25 mM phosphate buffer, pH 4.8) and monitored. […] Without being limited to theory, it is believed that for some compounds inhibition of heme aggregation in vitro can be correlated with inhibition of hemozoin formation in vivo.

[6] = Heme-binding affinity (spectrophotometric titration); settings: Table 4
Text: With continued reference to FIG. 1, panel B illustrates the spectrophotometric titration curve of the heme:3,6-bis-ε-(N,N-diethylamino)-amyloxy xanthone (C5) complex. The apparent binding constant was derived from the best fit (solid line) of a 1:1 (heme dimer:C5) association model. […] Panels A and B show the fluorescence localization of C5 and LysoTracker Red, respectively.

P. yoelii (K) = assay: Curative efficacy vs patent infection, three once-daily doses (adapted 6-day Thompson test); settings: ig, three once-daily doses
[7] = tested on: QN-sensitive P. yoelii (K); assay: In vivo synergism T3.5 and quinine, 6-day Thompson test in mice; settings: alone or fixed-ratio combination (dose of each)
Experimental: In vivo synergism was assessed using the 6-day Thompson test in mice infected with QN-sensitive P. yoelii (K), comparing the efficacy of T3.5 alone, QN alone and T3.5:QN combinations (Table 7). Dosages were established using a rigorous fixed-ratio combination dosing protocol and results were assessed using Calcusyn software to determine synergy. As in the case of the in vitro combination, there was evident in vivo synergism.

[8] = tested on: murine splenic lymphocytes (MSLCs); assay: Cytotoxicity by Alamar Blue assay; settings: for IC50: cytotoxicity
[9] = tested on: MDR Dd2 strain of P. falciparum; assay: In vitro antimalarial activity, SYBR Green MSF assay, Dd2; format: cell-based; settings: Plasmodium falciparum, DD2
Text: This example describes the screening of disclosed antimalarial acridones against the CQ-sensitive D6 strain and the MDR Dd2 strain of P. falciparum for in vitro antimalarial activity.
As shown in Table 3 and Table 4, selected soluble acridone derivatives were screened for antimalarial activity against the CQ-sensitive D6 and the MDR Dd2 strains of P. falciparum.

T2 sequence (P31645 whole entry): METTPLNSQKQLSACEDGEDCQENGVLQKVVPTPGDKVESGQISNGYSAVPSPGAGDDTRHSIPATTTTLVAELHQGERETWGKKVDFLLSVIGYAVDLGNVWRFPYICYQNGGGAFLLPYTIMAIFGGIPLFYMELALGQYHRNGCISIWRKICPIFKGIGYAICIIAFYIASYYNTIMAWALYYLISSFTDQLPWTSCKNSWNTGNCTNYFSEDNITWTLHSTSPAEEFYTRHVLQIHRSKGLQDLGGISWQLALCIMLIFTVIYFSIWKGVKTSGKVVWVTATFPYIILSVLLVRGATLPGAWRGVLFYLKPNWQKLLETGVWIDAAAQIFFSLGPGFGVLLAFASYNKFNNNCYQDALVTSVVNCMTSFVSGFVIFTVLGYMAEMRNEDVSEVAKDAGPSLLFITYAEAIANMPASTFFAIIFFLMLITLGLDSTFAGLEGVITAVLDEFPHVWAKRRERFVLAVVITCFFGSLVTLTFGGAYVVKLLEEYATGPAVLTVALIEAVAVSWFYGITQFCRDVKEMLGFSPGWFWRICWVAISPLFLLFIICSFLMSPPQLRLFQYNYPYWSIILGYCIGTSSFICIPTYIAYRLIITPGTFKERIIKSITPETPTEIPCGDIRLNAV
T1 sequence (Q01959 whole entry): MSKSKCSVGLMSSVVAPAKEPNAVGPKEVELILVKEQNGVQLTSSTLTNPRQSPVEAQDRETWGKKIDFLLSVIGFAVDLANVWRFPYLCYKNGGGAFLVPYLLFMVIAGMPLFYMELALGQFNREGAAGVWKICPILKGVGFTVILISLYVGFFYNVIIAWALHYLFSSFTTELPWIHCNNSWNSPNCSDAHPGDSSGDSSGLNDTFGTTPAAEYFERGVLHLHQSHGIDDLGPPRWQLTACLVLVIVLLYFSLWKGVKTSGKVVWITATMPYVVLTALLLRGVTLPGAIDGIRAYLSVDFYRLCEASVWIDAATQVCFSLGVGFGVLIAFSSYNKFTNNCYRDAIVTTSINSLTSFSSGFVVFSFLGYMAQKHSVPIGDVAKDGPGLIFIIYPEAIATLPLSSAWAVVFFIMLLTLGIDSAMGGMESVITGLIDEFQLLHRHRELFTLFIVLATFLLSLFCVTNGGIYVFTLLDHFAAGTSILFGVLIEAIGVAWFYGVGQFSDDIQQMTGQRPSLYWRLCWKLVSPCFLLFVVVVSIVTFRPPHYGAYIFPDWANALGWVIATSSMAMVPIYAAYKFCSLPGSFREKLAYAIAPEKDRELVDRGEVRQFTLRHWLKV
T3 sequence (P23975 whole entry): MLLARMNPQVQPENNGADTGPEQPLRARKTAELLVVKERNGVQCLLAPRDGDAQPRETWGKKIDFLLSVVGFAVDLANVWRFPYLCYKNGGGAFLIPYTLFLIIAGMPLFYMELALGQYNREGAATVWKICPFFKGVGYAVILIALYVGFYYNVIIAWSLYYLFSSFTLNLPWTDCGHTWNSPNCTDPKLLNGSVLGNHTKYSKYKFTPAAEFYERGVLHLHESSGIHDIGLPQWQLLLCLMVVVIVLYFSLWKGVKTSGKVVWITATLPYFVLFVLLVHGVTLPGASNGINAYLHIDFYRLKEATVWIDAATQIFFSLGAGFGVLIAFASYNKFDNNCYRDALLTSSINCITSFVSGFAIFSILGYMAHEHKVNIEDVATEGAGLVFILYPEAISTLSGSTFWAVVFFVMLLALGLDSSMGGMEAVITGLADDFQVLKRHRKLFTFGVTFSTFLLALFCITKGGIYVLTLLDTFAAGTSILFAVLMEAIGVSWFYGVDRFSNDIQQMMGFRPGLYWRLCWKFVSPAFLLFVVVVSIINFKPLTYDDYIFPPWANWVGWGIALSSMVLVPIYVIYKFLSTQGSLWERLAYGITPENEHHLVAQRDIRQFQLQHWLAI

With `CCN(CC)CCOc1ccc2c(=O)c3ccc(Cl)cc3n(CCN(CC)CC)c2c1` [T3.5, 3-(2-diethylaminoethoxy)-6-chloro-10-(2-diethylaminoethyl)-9-acridone] the “interaction with CQ” value (MDR P. falciparum Dd2; isobolar analysis) was “synergistic”, the interaction with amodiaquine (MDR P. falciparum Dd2; isobolar analysis) was “synergistic” and the interaction with mefloquine (MDR P. falciparum Dd2; isobolar analysis) was “not”. For the same compound, the interaction with quinine (MDR P. falciparum Dd2; isobolar analysis) was “synergism; also recorded: synergistic”, the “T3.5 concentration giving 90% growth inhibition in combination” value (MDR P. falciparum Dd2; with 7-70 nM quinine) was 20 to 200 nM and the “hemozoin in PRBCs” value (P. yoelii) was “lack hemozoin”. The interaction with quinine [1] was “synergism”, the Ki [2] was over 10000 nM and the Ki [3] was 2290 nM. For the same compound, the visible hemozoin (P. falciparum Dd2 MDR) was “markedly diminished”, the Ki [4] was over 10000 nM and the “formation of heme aggregates” value [5] was “prevent the formation of heme aggregates”. For the same compound, the “Heme-binding Ka” value [6] was 7.1 10^4 M^−1, the “ED50 and ED90, gavage (ig) dosing, in words” value (P. yoelii (K)) was “comparable” and the ED50 dose [7] was 56 mg/kg/day. For the same compound, the ED75 dose [7] was 70 mg/kg/day, the ED90 dose [7] was 88 mg/kg/day and the “cytotoxicity at the highest tested concentration” value ([8]; 25 μM) was “no evidence of cytotoxicity”. For the same compound, the IVTI ([8]; ratio of cytotoxicity IC50 (vs. MSLCs) to antimalarial IC50 against D6) was over 500, the IC50 ([8]; read-out: IC50, MSLCs, Table 2) was over 25000 nM and the IC50 ([8]; read-out: IC50 MSLCs, Table 4) was over 25000 nM. For the same compound, the IC50 ([9]; Table 2, average of 4 independent experiments, read-out: IC50, Dd2) was 58 nM and the IC50 ([9]; Table 4, read-out: IC50 P. falciparum Dd2) was 77 nM.

Source: US9399625B2, “Acridone compounds” (Oregon Health & Science University, priority 2006, dated 2016)
